Measurements: patent publication US9969694B2, “N-(arylalkyl)-N′-pyrazolyl-urea, thiourea, guanidine and cyanoguanidine compounds as TrkA kinase inhibitors” (Array BioPharma Inc., priority 2012, dated 2018)

Experiments:
BTK = biological target: T1, BTK (Homo sapiens, UniProt Q06187); experiment: Off-Target Kinase Profiling; type: biochemical; settings: 10 μM; ATP near Km
T1 construct: purchased Millipore (KinaseProfiler service)
Summary of the method: (§1)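 Run as part of a full commercial kinase panel: compound fixed at 10 μM, duplicate wells, ATP concentration near the individual enzyme Km. Output is POC, averaged across both determinations.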

JNK3 = biological target: T2, JNK3 (Homo sapiens, UniProt P53779); experiment: Off-Target Kinase Profiling; type: biochemical; settings: 10 μM; ATP near Km
T2 construct: purchased Millipore, Inc. (KinaseProfiler service)
Summary of the method: as §1

Txk = biological target: T3, Txk (Homo sapiens, UniProt P42681); experiment: Off-Target Kinase Profiling; type: biochemical; settings: 10 μM; ATP near Km
T3 construct: purchased Millipore, Inc. (KinaseProfiler service)
Summary of the method: as §1

CDK5/p25 = biological target: T4, CDK5/p25 (Homo sapiens, UniProt Q00535); experiment: Off-Target Kinase Profiling; type: biochemical; settings: 10 μM; ATP near Km
T4 construct: purchased Millipore, Inc. (KinaseProfiler service)
Summary of the method: as §1

TEC Activated = biological target: T5, TEC Activated (Homo sapiens, UniProt P42680); experiment: Off-Target Kinase Profiling; type: biochemical; settings: 10 μM; ATP near Km
T5 construct: purchased Millipore, Inc. (KinaseProfiler service)
Summary of the method: as §1

Flt3 = biological target: T6, Flt3 (Homo sapiens, UniProt P36888); experiment: Off-Target Kinase Profiling; type: biochemical; settings: 10 μM; ATP near Km
T6 construct: purchased Millipore, Inc. (KinaseProfiler service)
Summary of the method: as §1

Flt1 = biological target: T7, Flt1 (Homo sapiens, UniProt P17948); experiment: Off-Target Kinase Profiling; type: biochemical; settings: 10 μM; ATP near Km
T7 construct: purchased Millipore, Inc. (KinaseProfiler service)
Summary of the method: as §1

HIPK1 = biological target: T8, HIPK1 (Homo sapiens, UniProt Q86Z02); experiment: Off-Target Kinase Profiling; type: biochemical; settings: 10 μM; ATP near Km
T8 construct: purchased Millipore, Inc. (KinaseProfiler service)
Summary of the method: as §1

IRAK1 = biological target: T9, IRAK1 (Homo sapiens, UniProt P51617); experiment: Off-Target Kinase Profiling; type: biochemical; settings: 10 μM; ATP near Km
T9 construct: purchased Millipore, Inc. (KinaseProfiler service)
Summary of the method: as §1

ROCK-II = biological target: T10, ROCK-II (Homo sapiens, UniProt O75116); experiment: Off-Target Kinase Profiling; type: biochemical; settings: 10 μM; ATP near Km
T10 construct: purchased Millipore, Inc. (KinaseProfiler service)
Summary of the method: as §1

CDK3/cyclinE = biological target: T11, CDK3/cyclinE (Homo sapiens, UniProt Q00526); experiment: Off-Target Kinase Profiling; type: biochemical; settings: 10 μM; ATP near Km
T11 construct: purchased Millipore, Inc. (KinaseProfiler service)
Summary of the method: as §1

p38alpha = biological target: T12, p38alpha (Homo sapiens, UniProt Q16539); experiment: Off-Target Kinase Profiling; type: biochemical; settings: 10 μM; ATP near Km
T12 construct: purchased Millipore, Inc. (KinaseProfiler service)
Summary of the method: as §1

Yes = biological target: T13, Yes (Homo sapiens, UniProt P07947); experiment: Off-Target Kinase Profiling; type: biochemical; settings: 10 μM; ATP near Km
T13 construct: purchased Millipore, Inc. (KinaseProfiler service)
Summary of the method: as §1

CAMK2d = biological target: T14, CAMK2d (Homo sapiens, UniProt Q13557); experiment: Off-Target Kinase Profiling; type: biochemical; settings: 10 μM; ATP near Km
T14 construct: purchased Millipore (KinaseProfiler service)
Summary of the method: as §1

ZAP-70 = biological target: T15, ZAP-70 (Homo sapiens, UniProt P43403); experiment: Off-Target Kinase Profiling; type: biochemical; settings: 10 μM; ATP near Km
T15 construct: purchased Millipore, Inc. (KinaseProfiler service)
Summary of the method: as §1

ARK5 = biological target: T16, ARK5 (Homo sapiens, UniProt O60285); experiment: Off-Target Kinase Profiling; type: biochemical; settings: 10 μM; ATP near Km
T16 construct: purchased Millipore (KinaseProfiler service)
Summary of the method: as §1

AKT1 = biological target: T17, AKT1 (Homo sapiens, UniProt P31749); experiment: Off-Target Kinase Profiling; type: biochemical; settings: 10 μM; ATP near Km
T17 construct: purchased Millipore (KinaseProfiler service)
Summary of the method: as §1

DCAMKL2 = biological target: T18, DCAMKL2 (Homo sapiens, UniProt Q8N568); experiment: Off-Target Kinase Profiling; type: biochemical; settings: 10 μM; ATP near Km
T18 construct: purchased Millipore, Inc. (KinaseProfiler service)
Summary of the method: as §1

MST2 = biological target: T19, MST2 (Homo sapiens, UniProt Q13188); experiment: Off-Target Kinase Profiling; type: biochemical; settings: 10 μM; ATP near Km
T19 construct: purchased Millipore, Inc. (KinaseProfiler service)
Summary of the method: as §1

WNK2 = biological target: T20, WNK2 (Homo sapiens, UniProt Q9Y3S1); experiment: Off-Target Kinase Profiling; type: biochemical; settings: 10 μM; ATP near Km
T20 construct: purchased Millipore, Inc. (KinaseProfiler service)
Summary of the method: as §1

GRK7 = biological target: T21, GRK7 (Homo sapiens, UniProt Q8WTQ7); experiment: Off-Target Kinase Profiling; type: biochemical; settings: 10 μM; ATP near Km
T21 construct: purchased Millipore, Inc. (KinaseProfiler service)
Summary of the method: as §1

EphA3 = biological target: T22, EphA3 (Homo sapiens, UniProt P29320); experiment: Off-Target Kinase Profiling; type: biochemical; settings: 10 μM; ATP near Km
T22 construct: purchased Millipore, Inc. (KinaseProfiler service)
Summary of the method: as §1

Rsk2 = biological target: T23, Rsk2 (Homo sapiens, UniProt P51812); experiment: Off-Target Kinase Profiling; type: biochemical; settings: 10 μM; ATP near Km
T23 construct: purchased Millipore, Inc. (KinaseProfiler service)
Summary of the method: as §1

[1] = biological target: T24, His-tagged recombinant human TrkA (Homo sapiens, UniProt P04629); experiment: TrkA Kinase Binding Assay (LanthaScreen Eu); settings: averaged IC50; TR-FRET binding, 60 min, 22° C.; read-out: TrkA Enzyme IC50
T24 construct: 6HIS tagged cytoplasmic domain from Invitrogen, Catalog No. PV3144; purchased Invitrogen PV3144
Summary of the method: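 TR-FRET tracer displacement: 5 nM His-tagged TrkA cytoplasmic domain with 4 nM Tracer 236, biotinylated anti-His and Eu-streptavidin in pH 7.5 MOPS buffer, 2% DMSO, 60 min at 22 °C. 665/615 nm emission ratio gave percent of control; IC50 from four-parameter fit.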

T12 sequence (Q16539 whole entry): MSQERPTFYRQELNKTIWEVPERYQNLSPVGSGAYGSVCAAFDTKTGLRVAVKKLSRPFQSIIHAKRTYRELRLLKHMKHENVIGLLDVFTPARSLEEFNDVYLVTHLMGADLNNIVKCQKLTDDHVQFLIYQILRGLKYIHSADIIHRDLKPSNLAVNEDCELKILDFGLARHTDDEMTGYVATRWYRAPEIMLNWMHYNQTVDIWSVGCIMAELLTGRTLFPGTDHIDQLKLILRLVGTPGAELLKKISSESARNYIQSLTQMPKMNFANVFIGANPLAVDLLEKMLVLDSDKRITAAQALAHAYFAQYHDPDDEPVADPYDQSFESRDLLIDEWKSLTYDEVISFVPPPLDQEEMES
T10 sequence (O75116 whole entry): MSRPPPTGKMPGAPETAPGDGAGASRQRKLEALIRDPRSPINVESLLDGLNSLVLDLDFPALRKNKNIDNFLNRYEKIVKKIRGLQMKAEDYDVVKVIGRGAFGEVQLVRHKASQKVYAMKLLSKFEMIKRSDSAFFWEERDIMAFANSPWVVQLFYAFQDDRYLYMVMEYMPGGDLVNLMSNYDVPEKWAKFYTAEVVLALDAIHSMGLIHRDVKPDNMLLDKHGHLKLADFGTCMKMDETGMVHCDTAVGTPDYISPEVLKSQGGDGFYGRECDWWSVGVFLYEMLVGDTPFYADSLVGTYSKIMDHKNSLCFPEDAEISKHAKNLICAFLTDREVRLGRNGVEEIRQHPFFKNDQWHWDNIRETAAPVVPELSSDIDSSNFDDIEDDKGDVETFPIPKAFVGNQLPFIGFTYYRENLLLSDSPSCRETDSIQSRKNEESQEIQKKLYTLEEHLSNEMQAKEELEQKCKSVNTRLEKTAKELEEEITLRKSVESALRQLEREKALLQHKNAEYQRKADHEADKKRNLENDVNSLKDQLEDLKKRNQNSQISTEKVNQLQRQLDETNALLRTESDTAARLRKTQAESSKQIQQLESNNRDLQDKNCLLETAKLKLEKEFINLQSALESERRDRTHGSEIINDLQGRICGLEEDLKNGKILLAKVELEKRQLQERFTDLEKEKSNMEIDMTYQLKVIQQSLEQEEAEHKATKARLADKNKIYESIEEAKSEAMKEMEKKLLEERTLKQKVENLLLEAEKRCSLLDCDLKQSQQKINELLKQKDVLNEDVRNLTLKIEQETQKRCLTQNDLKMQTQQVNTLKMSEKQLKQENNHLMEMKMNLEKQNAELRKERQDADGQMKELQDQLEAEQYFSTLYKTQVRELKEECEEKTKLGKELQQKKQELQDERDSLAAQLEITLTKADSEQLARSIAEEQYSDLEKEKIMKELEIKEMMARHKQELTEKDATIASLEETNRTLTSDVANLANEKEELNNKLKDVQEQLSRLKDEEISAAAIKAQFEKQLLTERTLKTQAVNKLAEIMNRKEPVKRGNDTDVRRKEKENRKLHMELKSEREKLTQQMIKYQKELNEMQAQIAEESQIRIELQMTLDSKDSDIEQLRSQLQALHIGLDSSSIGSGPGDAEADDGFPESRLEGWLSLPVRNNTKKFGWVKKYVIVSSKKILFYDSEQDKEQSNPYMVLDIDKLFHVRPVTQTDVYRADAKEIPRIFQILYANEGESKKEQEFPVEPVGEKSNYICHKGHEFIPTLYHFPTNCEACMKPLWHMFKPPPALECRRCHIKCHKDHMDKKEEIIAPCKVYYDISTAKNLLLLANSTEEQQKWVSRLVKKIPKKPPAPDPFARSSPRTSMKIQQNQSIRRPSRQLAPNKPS
T7 sequence (P17948 27-1338): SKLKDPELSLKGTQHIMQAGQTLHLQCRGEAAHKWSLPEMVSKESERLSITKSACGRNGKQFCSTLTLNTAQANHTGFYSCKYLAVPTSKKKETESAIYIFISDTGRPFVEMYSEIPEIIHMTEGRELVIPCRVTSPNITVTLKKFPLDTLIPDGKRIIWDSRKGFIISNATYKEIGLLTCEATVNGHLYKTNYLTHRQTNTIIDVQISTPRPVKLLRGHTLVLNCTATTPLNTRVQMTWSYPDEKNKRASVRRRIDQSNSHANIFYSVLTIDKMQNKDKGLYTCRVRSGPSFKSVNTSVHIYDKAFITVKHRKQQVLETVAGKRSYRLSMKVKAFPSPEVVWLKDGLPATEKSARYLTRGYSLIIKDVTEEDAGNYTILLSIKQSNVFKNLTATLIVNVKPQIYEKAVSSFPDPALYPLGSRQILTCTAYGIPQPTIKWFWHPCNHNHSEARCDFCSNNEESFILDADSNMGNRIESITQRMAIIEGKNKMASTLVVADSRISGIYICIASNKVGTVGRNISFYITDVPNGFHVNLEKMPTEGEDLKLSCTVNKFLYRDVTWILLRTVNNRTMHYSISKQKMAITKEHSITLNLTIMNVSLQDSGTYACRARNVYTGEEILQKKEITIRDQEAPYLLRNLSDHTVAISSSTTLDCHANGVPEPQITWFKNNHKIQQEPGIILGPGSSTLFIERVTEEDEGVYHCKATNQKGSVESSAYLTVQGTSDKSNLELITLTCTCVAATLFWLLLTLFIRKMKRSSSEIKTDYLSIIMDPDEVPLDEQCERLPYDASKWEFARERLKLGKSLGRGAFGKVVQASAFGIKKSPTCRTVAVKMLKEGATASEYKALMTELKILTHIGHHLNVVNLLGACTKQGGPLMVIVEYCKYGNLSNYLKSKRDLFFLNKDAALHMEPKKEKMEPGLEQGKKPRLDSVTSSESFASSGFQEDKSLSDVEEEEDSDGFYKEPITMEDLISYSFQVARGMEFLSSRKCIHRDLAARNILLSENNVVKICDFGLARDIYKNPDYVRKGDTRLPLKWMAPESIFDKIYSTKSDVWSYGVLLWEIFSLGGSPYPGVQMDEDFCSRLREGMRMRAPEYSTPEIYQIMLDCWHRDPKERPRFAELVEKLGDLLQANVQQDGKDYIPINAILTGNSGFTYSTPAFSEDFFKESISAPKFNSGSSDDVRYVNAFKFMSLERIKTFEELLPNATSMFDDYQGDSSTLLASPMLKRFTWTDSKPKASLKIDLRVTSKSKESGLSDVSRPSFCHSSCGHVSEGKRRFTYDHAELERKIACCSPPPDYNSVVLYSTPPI
T4 sequence (Q00535 whole entry): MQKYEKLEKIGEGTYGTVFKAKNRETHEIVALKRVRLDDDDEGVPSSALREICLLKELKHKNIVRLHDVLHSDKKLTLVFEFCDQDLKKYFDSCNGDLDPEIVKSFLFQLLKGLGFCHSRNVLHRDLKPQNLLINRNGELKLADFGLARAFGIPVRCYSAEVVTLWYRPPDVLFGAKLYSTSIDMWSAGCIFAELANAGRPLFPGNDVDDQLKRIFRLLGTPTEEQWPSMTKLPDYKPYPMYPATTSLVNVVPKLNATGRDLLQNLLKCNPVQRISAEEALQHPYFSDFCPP
T4 sequence (Q15078 99-307 partner limits assumed): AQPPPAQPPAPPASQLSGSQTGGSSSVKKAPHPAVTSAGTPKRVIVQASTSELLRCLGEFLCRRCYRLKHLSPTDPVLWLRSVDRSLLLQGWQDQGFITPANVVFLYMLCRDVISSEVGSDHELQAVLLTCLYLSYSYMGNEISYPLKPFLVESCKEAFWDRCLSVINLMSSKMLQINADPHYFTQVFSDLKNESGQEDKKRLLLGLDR
T6 sequence (P36888 27-993): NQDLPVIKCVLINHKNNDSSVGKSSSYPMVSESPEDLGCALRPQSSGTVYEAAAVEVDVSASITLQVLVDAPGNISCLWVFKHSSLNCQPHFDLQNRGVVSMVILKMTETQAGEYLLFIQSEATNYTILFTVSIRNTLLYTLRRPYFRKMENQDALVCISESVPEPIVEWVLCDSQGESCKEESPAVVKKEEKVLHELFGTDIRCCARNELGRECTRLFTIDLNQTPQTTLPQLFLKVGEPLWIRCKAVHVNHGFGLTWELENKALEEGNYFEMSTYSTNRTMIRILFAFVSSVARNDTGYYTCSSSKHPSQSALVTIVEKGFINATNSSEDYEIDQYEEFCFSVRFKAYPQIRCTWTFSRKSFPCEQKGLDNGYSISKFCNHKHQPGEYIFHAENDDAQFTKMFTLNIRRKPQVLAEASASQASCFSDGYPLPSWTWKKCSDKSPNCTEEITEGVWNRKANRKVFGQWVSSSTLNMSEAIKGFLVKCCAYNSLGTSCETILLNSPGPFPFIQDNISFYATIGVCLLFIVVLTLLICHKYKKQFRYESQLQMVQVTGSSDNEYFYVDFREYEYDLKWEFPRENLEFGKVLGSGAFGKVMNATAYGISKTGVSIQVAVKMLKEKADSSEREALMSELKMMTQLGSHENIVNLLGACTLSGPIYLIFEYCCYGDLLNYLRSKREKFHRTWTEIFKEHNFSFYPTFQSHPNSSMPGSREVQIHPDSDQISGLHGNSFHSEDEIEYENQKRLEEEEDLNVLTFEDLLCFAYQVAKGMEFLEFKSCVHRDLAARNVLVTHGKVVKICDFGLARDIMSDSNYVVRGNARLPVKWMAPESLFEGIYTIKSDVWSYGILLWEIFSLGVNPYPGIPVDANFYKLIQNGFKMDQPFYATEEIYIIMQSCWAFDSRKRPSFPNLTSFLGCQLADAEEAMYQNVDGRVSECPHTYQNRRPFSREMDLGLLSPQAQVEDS
T3 sequence (P42681 whole entry): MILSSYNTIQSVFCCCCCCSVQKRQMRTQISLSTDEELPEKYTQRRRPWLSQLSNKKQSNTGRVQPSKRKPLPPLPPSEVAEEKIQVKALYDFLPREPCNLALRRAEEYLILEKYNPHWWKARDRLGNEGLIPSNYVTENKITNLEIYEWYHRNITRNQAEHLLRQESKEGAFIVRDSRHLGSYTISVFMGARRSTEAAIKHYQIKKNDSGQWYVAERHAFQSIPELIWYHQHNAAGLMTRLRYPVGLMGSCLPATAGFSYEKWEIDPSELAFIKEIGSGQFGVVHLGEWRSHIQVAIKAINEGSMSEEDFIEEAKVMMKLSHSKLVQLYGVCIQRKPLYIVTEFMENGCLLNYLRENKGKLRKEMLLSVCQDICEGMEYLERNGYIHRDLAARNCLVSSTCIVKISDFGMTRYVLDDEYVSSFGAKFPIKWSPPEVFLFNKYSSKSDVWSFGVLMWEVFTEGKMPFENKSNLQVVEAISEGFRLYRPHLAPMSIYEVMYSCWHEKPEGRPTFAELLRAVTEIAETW

| Structure (SMILES) | Avg POC BTK (BTK) | Avg POC JNK3 (JNK3) | Avg POC Txk (Txk) | Avg POC CDK5/p25 (CDK5/p25) | Avg POC TEC Activated (TEC Activated) | Avg POC Flt3 (Flt3) | Avg POC Flt1 (Flt1) | Avg POC HIPK1 (HIPK1) | Avg POC IRAK1 (IRAK1) | Avg POC ROCK-II (ROCK-II) | Avg POC CDK3/cyclinE (CDK3/cyclinE) | Avg POC p38alpha (p38alpha) | Avg POC Yes (Yes) | Avg POC CAMK2d (CAMK2d) | Avg POC ZAP-70 (ZAP-70) | Avg POC ARK5 (ARK5) | Avg POC AKT1 (AKT1) | Avg POC DCAMKL2 (DCAMKL2) | Avg POC MST2 (MST2) | Avg POC WNK2 (WNK2) | other results |
| --- | --- | --- | --- | --- | --- | --- | --- | --- | --- | --- | --- | --- | --- | --- | --- | --- | --- | --- | --- | --- | --- |
| COCc1ccc(C2CCC2)c(CNC(=O)Nc2c(C)c(-c3cnc(C)nc3)nn2-c2ccccc2)c1 [Example 10, 1-(2-cyclobutyl-5-(methoxymethyl)benzyl)-3-(4-methyl-3-(2-methylpyrimidin-5-yl)-1-phenyl-1H-pyrazol-5-yl)urea] | 117.5 POC | 74 POC | 104.5 POC | 107.5 POC | 88.5 POC | 54 POC | 88 POC | 100.5 POC | 101 POC | 98 POC | 90.5 POC | 91.5 POC | 88.5 POC | 126.5 POC | 120.5 POC | 87 POC | 105 POC | 96.5 POC | 97.5 POC | 109 POC | Avg POC GRK7 (GRK7): 105 POC; Avg POC EphA3 (EphA3): 119 POC; Avg POC Rsk2 (Rsk2): 129.5 POC; IC50 [1]: < 100 nM |
| COCc1ccc(C(F)(F)F)c(CNC(=O)Nc2c(C)c(-c3cnn(C)c3)nn2-c2ccccc2)c1 [Example 33, 1-(1′,4-dimethyl-1-phenyl-1H,1′H-[3,4′-bipyrazol]-5-yl)-3-(5-(methoxymethyl)-2-(trifluoromethyl)benzyl)urea] | 125 POC | 135 POC | 156.5 POC | 100.5 POC | 138.5 POC | 78.5 POC | 91 POC | 115.5 POC | 113 POC | 107.5 POC | 98.5 POC | 88.5 POC | 113 POC | 118 POC | 149 POC | 85.5 POC | 132 POC | 254.5 POC | 98 POC | 140.5 POC | Avg POC GRK7 (GRK7): 103 POC; Avg POC EphA3 (EphA3): 116.5 POC; Avg POC Rsk2 (Rsk2): 146 POC; IC50 [1]: < 100 nM |
